Values quoted from earlier work in patent US20130007910A1, “STRUCTURE OF THE BRASS[…] BRI1, AND MODULATION OF BRI1 SIGNALING” (Salk Institute for Biological Studies (027731), priority 2011, published 2013).

Molecular target: T1, BRI1 (Arabidopsis thaliana, UniProt O22476)
T1 sequence (O22476 24-1196): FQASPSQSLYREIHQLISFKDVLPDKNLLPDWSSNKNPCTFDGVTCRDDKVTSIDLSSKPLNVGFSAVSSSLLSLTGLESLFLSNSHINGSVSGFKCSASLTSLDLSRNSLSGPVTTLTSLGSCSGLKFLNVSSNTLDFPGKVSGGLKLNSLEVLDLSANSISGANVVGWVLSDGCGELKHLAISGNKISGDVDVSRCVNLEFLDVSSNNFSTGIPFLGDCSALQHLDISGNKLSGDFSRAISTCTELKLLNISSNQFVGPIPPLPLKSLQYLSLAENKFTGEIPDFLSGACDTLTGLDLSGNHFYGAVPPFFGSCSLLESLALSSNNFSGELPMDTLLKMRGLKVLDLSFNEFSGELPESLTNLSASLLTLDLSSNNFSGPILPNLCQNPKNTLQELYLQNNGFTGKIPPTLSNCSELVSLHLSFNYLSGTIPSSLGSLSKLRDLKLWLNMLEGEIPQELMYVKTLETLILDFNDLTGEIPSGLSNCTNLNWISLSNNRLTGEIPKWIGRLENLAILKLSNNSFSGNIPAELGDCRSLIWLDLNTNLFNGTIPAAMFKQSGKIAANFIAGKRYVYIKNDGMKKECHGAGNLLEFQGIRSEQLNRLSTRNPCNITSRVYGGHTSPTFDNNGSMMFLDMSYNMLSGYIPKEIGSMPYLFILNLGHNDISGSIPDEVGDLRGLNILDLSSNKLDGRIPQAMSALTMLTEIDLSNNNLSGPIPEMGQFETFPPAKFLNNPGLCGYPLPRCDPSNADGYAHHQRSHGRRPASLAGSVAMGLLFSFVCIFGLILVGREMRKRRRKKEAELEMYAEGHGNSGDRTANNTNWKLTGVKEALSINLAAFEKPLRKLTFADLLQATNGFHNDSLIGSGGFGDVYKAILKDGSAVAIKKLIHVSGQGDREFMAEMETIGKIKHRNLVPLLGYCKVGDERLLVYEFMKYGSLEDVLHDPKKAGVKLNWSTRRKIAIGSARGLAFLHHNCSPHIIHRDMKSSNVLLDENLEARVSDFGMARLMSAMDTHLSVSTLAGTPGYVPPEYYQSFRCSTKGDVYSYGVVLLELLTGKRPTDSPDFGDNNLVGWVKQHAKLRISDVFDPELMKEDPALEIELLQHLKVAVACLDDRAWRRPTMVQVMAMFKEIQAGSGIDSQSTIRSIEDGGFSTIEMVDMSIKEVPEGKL
Details: for recognition of steroid ligand by BRI1: known behaviour, explained from the co-crystal structure (alkyl side chain pocket, B-ring contacts)

Row | Compound | recognition of steroid ligand by BRI1 | affinity of binding to BRI1 (stated in words, no method or figure given)
1 | C[C@H]([C@H](O)CCC(C)(C)O)[C@H]1CC[C@@]2(O)C3=CC(=O)[C@@H]4C[C@@H](O)[C@@H](O)C[C@]4(C)[C@H]3CC[C@]12C [ecdysone] | cannot be recognized by BRI1 | –
2 | CC(C)[C@H](C)[C@@H](O)[C@H](O)[C@@H](C)[C@H]1CC[C@H]2[C@@H]3COC(=O)[C@H]4C[C@H](O)[C@H](O)C[C@]4(C)[C@H]3CC[C@]12C [brassinolide] | – | nanomolar
3 | CC(C)[C@H](C)[C@@H](O)[C@H](O)[C@@H](C)[C@H]1CC[C@H]2[C@@H]3CC(=O)[C@H]4C[C@H](O)[C@H](O)C[C@]4(C)[C@H]3CC[C@]12C [castasterone] | tolerated by BRI1 | –
